Test results from patent US20050118613A1, “Methods and kits for predicting the likelihood of successful treatment of cancer” (Oncomethylome Sciences S.A., priority 2003, published 2005).

Key:
[1] = system: stage II and III colorectal cancers; test: Survival of stage II and III colorectal cancer patients treated by surgery alone or surgery plus standard 5FU chemotherapy, by hMLH1 methylation; type: in vivo, human
Text: The predictive value of hMLH1 methylation for survival benefit with 5FU chemotherapy was examined in a series of stage II and III colorectal cancers that had been treated by surgery alone (no chemotherapy) or by surgery plus standard 5FU chemotherapy.
The following primers were used to detect methylated hMLH1 following bisulfite conversion (utilising the MSP technique): […]

stage III CRC patients = test: Survival of stage III CRC patients treated by surgery alone or by surgery and 5-FU/leucovorin (matched cohorts), by CIMP status; type: in vivo, human
Text: A total of 891 stage III CRC cases were diagnosed at the Sir Charles Gairdner Hospital between 1985 and 1999 (14). This spans the time period during which 5-FU-based adjuvant chemotherapy was being introduced in Western Australia for the management of stage III CRC. Adjuvant chemotherapy was given to 270 (30%) patients according to the standard Mayo regimen (5-FU/leucovorin). This comprised at least two cycles of chemotherapy, and for the majority of patients the full six cycles were completed. Patients were separated into categories based on 5-year age intervals, gender, and site of tumor origin. […] Within these groups, adjuvant-treated and nontreated patients were pair-matched at random. A total cohort of 125 matched pairs was selected for DNA methylation analysis. […] All cases were diagnosed at a single pathology laboratory (Hospital and University Pathology Service/Pathcenter) associated with the Sir Charles Gairdner Hospital. This laboratory maintained relatively constant reporting practices during the 1985-1999 study period. Five cases were classified as T4 lesions, and all others were classified as T3. The study included 48 rectal, 24 sigmoid, 24 descending colon, 17 transverse colon, 47 ascending colon, and 46 cecal tumors. Four patients with rectal cancer received post-operative radiotherapy. Disease-specific survival information was obtained on all 206 patients by examination of hospital and West Australian Health Department records. The median follow-up time was 39 months (range, 1-172 months), with 119 patients (58%) dying as a result of recurrent disease by the end of the study. Survival data for 19 (9%) patients who died from other causes were censored at the time of death. It has been estimated that net migration out of the state of Western Australia is 0.4% per year, equating to approximately 1 case/year of the 206 cases investi-gated in this series. However, this rate is expected to be considerably lower for older individuals and particularly for those diagnosed with cancer. The Sir Charles Gairdner Hospital Human Research Ethics Committee gave approval for this study.
Methylation-specific PCR was used to determine the methylation status of CpG islands located within the p16 promoter (4, 5, 10, 17), the MINT-2 clone (3, 4), and the MDR1 promoter (4, 9). DNA amplification of all three CpG loci was successful for 103 matched pairs, equating to an overall success rate of approximately 90%. CIMP+ was arbitrarily defined as the presence of two or more of these sites showing methylation. Of the 206 tumors successfully analyzed in this study for CIMP+ status, the majority (83%) were sourced from formalin-fixed and paraffin-embedded archival tissue blocks. The remaining cases were in the form of unfixed tissue samples taken shortly after surgical resection and stored frozen at −80° C.
Multivariate Cox proportional hazard test with matched-pair stratification and Kaplan-Meier analyses were used to evaluate differences in survival between patient groups. Regression sensitivity was determined by analyzing the effect of unmeasured binary confounders as described by Lin et al. (20) Statistical analyses were performed using the Stata 7.0 (College Station, Tex.) software package. All Ps are two-sided.

For `O=c1[nH]cc(F)c(=O)[nH]1` [5-FU, 5-fluorouracil], the “survival of patient group” value ([1]; hMLH1 methylated, chemotherapy (10/10), P = 0.097 vs no chemotherapy) was 10/10 (100%) P = 0.097, the “survival of patient group” value ([1]; hMLH1 non-methylated, chemotherapy (15/22), P = NS vs no chemotherapy) was 15/22 (68%) P = NS and the “impact of chemotherapy on overall survival” value ([1]; patients with methylated hMLH1 gene, chemotherapy vs no chemotherapy (FIG. 3C)) was “positive impact”. The “RR (relative risk), predictive value of CIMP+ for survival benefit” value (stage III CRC patients; CIMP+, multivariate analysis for matched pairs, independent of MSI+ and p53 status, 95% CI 0.06-0.84, P=0.027) was 0.22, the “long-term survival benefit from 5-FU treatment” value (stage III CRC patients; CIMP- patients) was “no long-term survival benefit” and the “RR (relative risk), survival benefit from 5-FU” value (stage III CRC patients; CIMP- patients, 95% CI 0.62-1.49, P=0.86) was 0.96. For the same molecule, the “RR (relative risk), survival benefit associated with the use of 5-FU” value (stage III CRC patients; all stage III CRC patients, surgery + 5-FU vs surgery alone, 95% CI 0.43-0.90, P=0.012) was 0.62, the “survival of CIMP+ patients compared to CIMP-” value (stage III CRC patients; cohort treated with surgery plus 5-FU) was “trend for better survival” and the “patients who died from recurrent CRC despite the use of 5-FU” value (stage III CRC patients; patients with CIMP+ tumors) was “approximately 40%”.
